According to the NIST ThermoML archive (doi:10.1021/je060203o):

Details: Liquid; for speed of sound: Pulse-echo method; for mass density: Vibrating tube method

CCCn1cc[n+](C)c1.O=S(=O)([N-]S(=O)(=O)C(F)(F)F)C(F)(F)F
Details	mass density [kg/m3]	speed of sound [m/s]
318.15 K, 10000 kPa	–	1225.2
318.15 K, 10020 kPa	1464.41	–
318.15 K, 13500 kPa	–	1236.8
318.15 K, 14980 kPa	1467.91	–
318.15 K, 17000 kPa	–	1248.2
318.15 K, 19750 kPa	1471.3	–
318.15 K, 20000 kPa	–	1257.7
318.15 K, 25860 kPa	1475.51	–
318.15 K, 30000 kPa	–	1288.7
318.15 K, 31480 kPa	1479.58	–
318.15 K, 37770 kPa	1483.63	–
318.15 K, 40000 kPa	–	1317.8
318.15 K, 44170 kPa	1487.95	–
318.15 K, 50000 kPa	–	1345.7
318.15 K, 50750 kPa	1492.22	–
318.15 K, 59590 kPa	1498.46	–
318.15 K, 60000 kPa	–	1372.2
318.15 K, 70000 kPa	–	1397.8
318.15 K, 80000 kPa	–	1422.3
318.15 K, 90000 kPa	–	1446.3
318.15 K, 100000 kPa	–	1468.9
318.15 K, 112500 kPa	–	1496.5
318.15 K, 125000 kPa	–	1523.2
318.15 K, 137510 kPa	–	1548.4
318.15 K, 150000 kPa	–	1572.9
318.15 K, 162500 kPa	–	1596.6
318.15 K, 175000 kPa	–	1620
318.15 K, 187500 kPa	–	1642.7
318.15 K, 200000 kPa	–	1664.6
323.15 K, 100 kPa	1451.66	–
323.15 K, 1830 kPa	1452.94	–
323.15 K, 10020 kPa	1459.11	–
323.15 K, 14980 kPa	1462.75	–
323.15 K, 19750 kPa	1466.15	–
323.15 K, 25860 kPa	1470.44	–
323.15 K, 31480 kPa	1474.24	–
323.15 K, 37770 kPa	1478.57	–
323.15 K, 44170 kPa	1482.86	–
323.15 K, 50750 kPa	1487.24	–
323.15 K, 59590 kPa	1493.03	–
325.15 K, 100 kPa	1449.44	–
325.15 K, 1830 kPa	1450.74	–
325.15 K, 10020 kPa	1456.98	–
325.15 K, 14980 kPa	1460.64	–
325.15 K, 19750 kPa	1464.08	–
325.15 K, 25860 kPa	1468.44	–
325.15 K, 31480 kPa	1472.46	–
325.15 K, 37770 kPa	1476.81	–
325.15 K, 44170 kPa	1481.18	–
325.15 K, 50750 kPa	1485.62	–
325.15 K, 59590 kPa	1491.56	–
327.15 K, 100 kPa	1447.19	–
327.15 K, 1830 kPa	1448.52	–
327.15 K, 10020 kPa	1454.88	–
327.15 K, 14980 kPa	1458.57	–
327.15 K, 19750 kPa	1461.98	–
327.15 K, 25860 kPa	1466.38	–
327.15 K, 31480 kPa	1470.37	–
327.15 K, 37770 kPa	1474.75	–
327.15 K, 44170 kPa	1479.18	–
327.15 K, 50750 kPa	1483.65	–
327.15 K, 59590 kPa	1489.6	–
328.15 K, 500 kPa	–	1170.9
328.15 K, 3500 kPa	–	1181.8
328.15 K, 7000 kPa	–	1194.2
328.15 K, 10000 kPa	–	1204.7
328.15 K, 13500 kPa	–	1216.4
328.15 K, 17000 kPa	–	1228
328.15 K, 20000 kPa	–	1237.7
328.15 K, 30000 kPa	–	1269.2
328.15 K, 40000 kPa	–	1299.1
328.15 K, 50000 kPa	–	1327.3
328.15 K, 60000 kPa	–	1354.2
328.15 K, 70000 kPa	–	1380.1
328.15 K, 80000 kPa	–	1405.1
328.15 K, 90000 kPa	–	1429.1
328.15 K, 100000 kPa	–	1452.2
328.15 K, 112500 kPa	–	1480.1
328.15 K, 125000 kPa	–	1506.9
328.15 K, 137510 kPa	–	1532.8
328.15 K, 150000 kPa	–	1557
328.15 K, 162500 kPa	–	1581.2
328.15 K, 175000 kPa	–	1604.6
328.15 K, 187500 kPa	–	1627.3
328.15 K, 200000 kPa	–	1649.6
329.15 K, 100 kPa	1444.85	–
329.15 K, 1830 kPa	1446.17	–
329.15 K, 10020 kPa	1452.55	–
329.15 K, 14980 kPa	1456.27	–
329.15 K, 19750 kPa	1459.81	–
329.15 K, 25860 kPa	1464.24	–
329.15 K, 31480 kPa	1468.26	–
329.15 K, 37770 kPa	1472.67	–
329.15 K, 44170 kPa	1477.09	–
329.15 K, 50750 kPa	1481.63	–
329.15 K, 59590 kPa	1487.58	–
331.15 K, 100 kPa	1442.53	–
331.15 K, 1830 kPa	1443.83	–
331.15 K, 10020 kPa	1450.37	–
331.15 K, 14980 kPa	1454.12	–
331.15 K, 19750 kPa	1457.75	–
331.15 K, 25860 kPa	1462.22	–
331.15 K, 31480 kPa	1466.27	–
331.15 K, 37770 kPa	1470.7	–
331.15 K, 44170 kPa	1475.13	–
331.15 K, 50750 kPa	1479.63	–
331.15 K, 59590 kPa	1485.58	–
333.15 K, 100 kPa	1440.12	–
333.15 K, 1830 kPa	1441.48	–
333.15 K, 10020 kPa	1448.04	–
333.15 K, 14980 kPa	1451.88	–
333.15 K, 19750 kPa	1455.51	–
333.15 K, 25860 kPa	1460.01	–
333.15 K, 31480 kPa	1464.11	–
333.15 K, 37770 kPa	1468.58	–
333.15 K, 44170 kPa	1473.05	–
333.15 K, 50750 kPa	1477.56	–
333.15 K, 59590 kPa	1483.54	–
338.15 K, 1420 kPa	–	1153.5
338.15 K, 3500 kPa	–	1161.2
338.15 K, 7000 kPa	–	1173.8
338.15 K, 10000 kPa	–	1184.4
338.15 K, 13500 kPa	–	1196.6
338.15 K, 17000 kPa	–	1208.3
338.15 K, 20000 kPa	–	1218.2
338.15 K, 30000 kPa	–	1250.4
338.15 K, 40000 kPa	–	1280.7
338.15 K, 50000 kPa	–	1309.2
338.15 K, 60000 kPa	–	1336.7
338.15 K, 70000 kPa	–	1362.9
338.15 K, 80000 kPa	–	1388.1
338.15 K, 90000 kPa	–	1412.3
338.15 K, 100000 kPa	–	1435.8
338.15 K, 112500 kPa	–	1463.9
338.15 K, 125000 kPa	–	1491.1
338.15 K, 137510 kPa	–	1517
338.15 K, 150000 kPa	–	1541.4
338.15 K, 162500 kPa	–	1566
338.15 K, 175000 kPa	–	1589.5
